These results are taken from ChEMBL document CHEMBL3217673, “Synthesis of cyanine dyes and investigation of their in vitro antiprotozoal activities” (Medchemcomm, 2012).

For one series, the system named is Plasmodium falciparum. Briefly: Antiprotozoal activity against chloroquine and pyrimethamine-resistant Plasmodium falciparum K1. It counts as functional, organism-based.
Series [1] is described as follows: Selectivity index, ratio of IC50 for rat L6 cells to IC50 for Leishmania donovani MHOMET-67/L82. It counts as toxicity, cell-based. The note with it: read-out: Ratio IC50.
Series [2] is described as follows: Selectivity index, ratio of IC50 for rat L6 cells to IC50 for Trypanosoma brucei rhodesiense STIB900. It counts as toxicity, cell-based. The note with it: read-out: Ratio IC50.
A further series deals with Leishmania donovani. Nature of the series: Antiprotozoal activity against Leishmania donovani MHOMET-67/L82. It counts as functional, organism-based.
A short description of series [3]: Selectivity index, ratio of IC50 for rat L6 cells to IC50 for chloroquine and pyrimethamine-resistant Plasmodium falciparum K1. It counts as toxicity, cell-based. The following applies: read-out: Ratio IC50.
The subject of the next series is Trypanosoma cruzi. Briefly: Antiprotozoal activity against Trypanosoma cruzi Tulahuen C2C4. In kind it is functional, organism-based.
The subject of a further series is L6. Nature of the series: Cytotoxicity against rat L6 cells. It counts as cell-based.
Series [4] is described as follows: Selectivity index, ratio of IC50 for rat L6 cells to IC50 for Trypanosoma cruzi Tulahuen C2C4. In kind it is toxicity, cell-based. The note with it: read-out: Ratio IC50.
For series [5], the system named is Trypanosoma brucei rhodesiense. Briefly: Antiprotozoal activity against Trypanosoma brucei rhodesiense STIB900. It counts as functional, organism-based.

As usually defined, the IC50 is the midpoint of a concentration-inhibition curve. Take `CN1/C(=C/C=C/c2oc3ccccc3[n+]2C)Oc2ccccc21`: the IC50 in the series with Plasmodium falciparum was determined as 38 nM; in the series on Leishmania donovani, 211 nM; in the series with Trypanosoma cruzi it was 106 nM; in the series with L6, 3760 nM; in [5], 707 nM. Moreover, the selectivity ratio turned out to be 17.8 in series [1], 5.3 in series [2], 98.5 in series [3] and 35.6 in series [4].

In the case of `Cc1ccc2c(c1)N(C)/C(=C/C=C/c1oc3ccccc3[n+]1C)O2`, the concentration for half-maximal inhibition (IC50) in the series on Plasmodium falciparum turned out to be 90 nM; with Leishmania donovani, 22 nM; in the series on Trypanosoma cruzi, 19 nM; in the series with L6 it was 1140 nM; in series [5], 48 nM. Moreover, the selectivity ratio in [1] was determined as 50.5; in [2] it was 23.8; in series [3], 12.6; in series [4], 57.7.

Regarding `Cc1ccc2c(c1)N(C)/C(=C/C=C/c1oc3ccc(C)cc3[n+]1C)O2`, the IC50 in the series with Plasmodium falciparum was 14 nM; in the series on Leishmania donovani it was 5 nM; in the series with L6 it was 230 nM; in series [5], 54 nM. Further, the selectivity ratio worked out at 42.5 in series [1], 4.3 in series [2] and 17 in series [3].

`CN1/C(=C/C=C/c2oc3ccccc3[n+]2C)Oc2ccc(Cl)cc21`: the IC50 with Plasmodium falciparum worked out at 925 nM; with Leishmania donovani, 1460 nM; in the series with Trypanosoma cruzi, 7750 nM; in the series on L6 it was 23900 nM; in [5], 5840 nM. The selectivity ratio in series [1] stood at 16.3; in series [2], 4.1; in [3] it was 25.8; in series [4], 3.1.

Take `Cc1ccc2oc(/C=C/C=C3\Oc4ccc(Cl)cc4N3C)[n+](C)c2c1`: the half-maximal inhibitory concentration (IC50) in the series on Plasmodium falciparum was 468 nM; in the series on Leishmania donovani, 110 nM; in the series with Trypanosoma cruzi, 1370 nM; with L6 it was 7580 nM; in [5], 136 nM. Moreover, the selectivity ratio in series [1] came out at 68.6; in [2] it was 55.7; in series [3] it was 16.2; in [4], 5.5.

With `CN1/C(=C/C=C/c2oc3ccc(Cl)cc3[n+]2C)Oc2ccc(Cl)cc21`, the IC50 in the series with Plasmodium falciparum amounted to 6030 nM; in the series on Leishmania donovani, 5320 nM; with Trypanosoma cruzi it was 47800 nM; in the series on L6, 35900 nM; in series [5], 5200 nM. Moreover, the selectivity ratio in series [1] turned out to be 6.7; in [2], 6.9; in series [3], 6; in series [4], 0.8.

With `CN1/C(=C/C=C/c2oc3ccccc3[n+]2C)Sc2ccccc21`, the IC50 came to 2 nM with Plasmodium falciparum; 90 nM with Leishmania donovani; 11 nM in the series on Trypanosoma cruzi; 849 nM with L6; 185 nM in series [5]. The selectivity ratio in [1] is 9.5; in [2], 4.6; in series [3], 303; in series [4], 75.8.

`Cc1ccc2c(c1)N(C)/C(=C/C=C/c1oc3ccccc3[n+]1C)S2`: the IC50 was 11 nM with Plasmodium falciparum, 14 nM in the series with Leishmania donovani, 146 nM in the series with L6 and 113 nM in series [5]. Further, the selectivity ratio in [1] was 10.8; in series [2], 1.3; in series [3], 13.5.

For `Cc1ccc2oc(/C=C/C=C3\Sc4ccccc4N3C)[n+](C)c2c1`, the IC50 was determined as 16 nM with Plasmodium falciparum, 40 nM with Leishmania donovani, 121 nM with L6 and 496 nM in [5]. The selectivity ratio in series [1] was 3; in [2], 0.2; in [3], 7.5.

Regarding `Cc1ccc2c(c1)N(C)/C(=C/C=C/c1oc3ccc(C)cc3[n+]1C)S2`, the IC50 with Plasmodium falciparum turned out to be 8 nM; with Leishmania donovani, 10 nM; in the series on L6, 94 nM; in series [5] it was 39 nM. In addition, the selectivity ratio in series [1] was 9; in series [2], 2.4; in [3], 12.

Regarding `CN1/C(=C/C=C/c2oc3ccc(Cl)cc3[n+]2C)Sc2ccccc21`, the IC50 in the series on Plasmodium falciparum amounted to 20 nM; with Leishmania donovani it was 61 nM; with Trypanosoma cruzi, 284 nM; in the series with L6, 3400 nM; in series [5] it was 13 nM. For the same compound, the selectivity ratio was found to be 55.4 in [1], 266 in series [2], 166 in [3] and 12 in series [4].

`Cc1ccc2oc(/C=C/C=C3\Sc4ccc(Cl)cc4N3C)[n+](C)c2c1`: the IC50 was 20 nM in the series on Plasmodium falciparum; 89 nM with Leishmania donovani; 109 nM in the series on Trypanosoma cruzi; 1180 nM in the series on L6; 62 nM in series [5]. The selectivity ratio is 13.3 in series [1], 19.2 in series [2], 60 in [3] and 10.9 in series [4].

Take `CN1/C(=C/C=C/c2oc3ccccc3[n+]2C)Sc2ccc(Cl)cc21`: the IC50 in the series with Plasmodium falciparum came to 13 nM; with Leishmania donovani it was 120 nM; in the series with Trypanosoma cruzi, 355 nM; in the series on L6, 2280 nM; in series [5], 266 nM. The selectivity ratio turned out to be 19 in [1], 8.6 in [2], 178 in [3] and 6.4 in series [4].

In the case of `CN1/C(=C/C=C/c2oc3ccc(Cl)cc3[n+]2C)Sc2ccc(Cl)cc21`, the IC50 worked out at 21 nM in the series on Plasmodium falciparum; 85 nM in the series on Leishmania donovani; 2860 nM in the series on Trypanosoma cruzi; 2980 nM with L6; 129 nM in series [5]. Further, the selectivity ratio worked out at 35.3 in series [1], 23.1 in series [2], 141 in [3] and 1 in series [4].

On to `CCN1/C(=C/C=C/c2oc3ccc(C)cc3[n+]2C)Sc2ccc(F)cc21`, for which the IC50 is 10 nM in the series on Plasmodium falciparum; 15 nM in the series with Leishmania donovani; 27 nM with Trypanosoma cruzi; 655 nM in the series with L6; 285 nM in [5]. Besides, the selectivity ratio is 44 in series [1], 2.3 in series [2], 66 in series [3] and 24 in [4].

Regarding `Cc1ccc2oc(/C=C/C=C3\Sc4ccc(F)cc4N3C)[n+](C)c2c1`, the IC50 was 10 nM in the series with Plasmodium falciparum; 21 nM in the series with Leishmania donovani; 8 nM in the series with Trypanosoma cruzi; 1490 nM with L6; 180 nM in series [5]. Further, the selectivity ratio is 72.6 in [1], 8.3 in series [2], 145 in [3] and 194 in [4].

For the compound `CCN1/C(=C/C=C/c2oc3ccc(Cl)cc3[n+]2C)Sc2ccc(F)cc21`, the IC50 was determined as 14 nM with Plasmodium falciparum; 106 nM in the series on Leishmania donovani; 853 nM with Trypanosoma cruzi; 3100 nM in the series on L6; 850 nM in series [5]. Also, the selectivity ratio in series [1] came out at 29.1; in series [2], 3.6; in [3], 218; in series [4], 3.6.

In the case of `CN1/C(=C/C=C/c2oc3ccccc3[n+]2C)Sc2ccc(F)cc21`, the IC50 in the series on Plasmodium falciparum was found to be 5 nM; in the series with Leishmania donovani, 67 nM; with Trypanosoma cruzi, 186 nM; in the series with L6 it was 1070 nM; in series [5] it was 867 nM. The selectivity ratio was determined as 16.1 in [1], 1.2 in series [2], 201 in [3] and 5.7 in [4].

For the compound `CCN1/C(=C/C=C/c2oc3ccccc3[n+]2C)Sc2ccc(F)cc21`, the concentration for half-maximal inhibition (IC50) in the series with Plasmodium falciparum is 3 nM; in the series on Leishmania donovani it was 54 nM; with Trypanosoma cruzi, 262 nM; with L6, 1510 nM; in series [5], 841 nM. Also, the selectivity ratio was 27.9 in series [1], 1.8 in [2], 586 in series [3] and 5.7 in series [4].

Turning to `CN1/C(=C/C=C/c2sc3ccccc3[n+]2C)Sc2ccccc21`, the IC50 in the series with Plasmodium falciparum is 3 nM; in the series on Leishmania donovani, 5 nM; in the series on Trypanosoma cruzi, 5 nM; in the series on L6, 338 nM; in series [5] it was 115 nM. In addition, the selectivity ratio came out at 63 in series [1], 2.9 in series [2], 126 in series [3] and 63 in [4].

Turning to `CN1/C(=C/C=C/c2sc3ccccc3[n+]2C)Sc2ccc(Cl)cc21`, the IC50 in the series on Plasmodium falciparum amounted to 7 nM; in the series on Leishmania donovani, 64 nM; in the series with Trypanosoma cruzi it was 7 nM; in the series with L6, 331 nM; in series [5], 64 nM. The selectivity ratio in series [1] was 5.2; in series [2] it was 5.2; in [3], 45; in series [4] it was 45.

`CN1/C(=C/C=C/c2sc3ccc(Cl)cc3[n+]2C)Sc2ccc(Cl)cc21`: the IC50 in the series with Plasmodium falciparum was 2 nM; in the series on Leishmania donovani, 9 nM; in the series with Trypanosoma cruzi, 7080 nM; in the series with L6 it was 1080 nM; in [5], 18 nM. Also, the selectivity ratio was 119 in [1], 59.6 in [2], 477 in series [3] and 0.2 in [4].

As for `CN1/C(=C/C=C/c2sc3ccccc3[n+]2C)Sc2ccc(F)cc21`, the IC50 with Plasmodium falciparum came to 5 nM; in the series on Leishmania donovani, 79 nM; with L6 it was 483 nM; in [5] it was 394 nM. Besides, the selectivity ratio was found to be 6.1 in [1], 1.2 in series [2] and 94.5 in series [3].

`CCN1/C(=C/C=C/c2sc3ccccc3[n+]2C)Sc2ccc(F)cc21`: the IC50 is 7 nM in the series on Plasmodium falciparum, 111 nM in the series with Leishmania donovani, 240 nM in the series on L6 and 452 nM in series [5]. Besides, the selectivity ratio is 2.2 in [1], 0.5 in series [2] and 32.3 in series [3].
